According to patent US12673120B2, “Fluorescently-traceable amino acid derivative and preparation methods and use thereof” (priority 2020, dated 2026):
Read-outs that look alike come from different tables or passages of the source.

Experiments:
[1] = tested on: LLC (mouse lung cancer cells); experiment: In vitro anti-tumor cell proliferation activity (MTT method), LLC; type: cell-based; settings: 48 h, read-out: IC50 values of in vitro anti-cell proliferation activity
Protocol: (§1) Tested cell lines S180 (mouse ascites tumor cells), LLC (mouse lung cancer cells), A549 (human non-small cell lung cancer cells), HCT116 (human colon cancer cells), U2Os (human osteosarcoma cells), and MCF-7 (human breast cancer cells) each were purchased from Nanjing KeyGen Biotech.
(§2) When preparing a test sample, the test compound was prepared into a sample solution with a concentration of 500 μM (with a final concentration 100 μM) by a PBS buffer containing 0.5% DMSO, which was used for preliminary screening of an anti-cell proliferation experiment in vitro.
(§3) Positive control group: doxorubicin, prepared to a required concentration with PBS buffer containing 0.5% DMSO; negative control group: a PBS buffer containing 0.5% DMSO; blank group: a PBS buffer containing 0.01% DMSO.

[2] = tested on: A549 (human non-small cell lung cancer cells); experiment: In vitro anti-tumor cell proliferation activity (MTT method), A549; type: cell-based; settings: read-out: IC50 values of in vitro anti-cell proliferation activity
Protocol: as §1, §2, §3

[3] = tested on: S180 (mouse ascites tumor cells); experiment: In vitro anti-tumor cell proliferation activity (MTT method), S180; type: cell-based; settings: read-out: IC50 values of in vitro anti-cell proliferation activity
Protocol: as §1, §2, §3

[4] = tested on: U2Os (human osteosarcoma cells); experiment: In vitro anti-tumor cell proliferation activity (MTT method), U2Os; type: cell-based; settings: 48 h, read-out: IC50 values of in vitro anti-cell proliferation activity
Protocol: as §1, §2, §3

[5] = tested on: MCF-7 (human breast cancer cells); experiment: In vitro anti-tumor cell proliferation activity (MTT method), MCF-7; type: cell-based; settings: read-out: IC50 values of in vitro anti-cell proliferation activity
Protocol: as §1, §2, §3

[6] = tested on: HCT116 (human colon cancer cells); experiment: In vitro anti-tumor cell proliferation activity (MTT method), HCT116; type: cell-based; settings: read-out: IC50 values of in vitro anti-cell proliferation activity
Protocol: as §1, §2, §3

mouse S180 sarcoma model = experiment: Inhibition of tumor growth in vivo (mouse S180 sarcoma model); design: species or system male ICR mice; settings: for Average tumor weight: Mean ± SD, n 10
Protocol: The mice used in the experiment were male ICR mice of SPF grade, weighing 20 g±2 g, purchased from Beijing Vital River Laboratory Animal Technology Co., Ltd., and raised in an animal barrier of the Experimental Animal Department of Capital Medical University.
The specific method included: drugs were administered to tumor-forming mice by group for 7 consecutive days, a length of the tumor was measured every other day to calculate a tumor volume. 24 h after the last administration, the mice were weighed, anesthetized with diethyl ether, and eyeballs were removed to collect blood; the obtained whole blood was centrifuged at 1,000 rpm for 10 min, and a serum was absorbed for later use. The mice were sacrificed by neck dislocation, and the tumor mass and various organs were stripped and weighed (it was ensured that the operation was done as soon as possible and the stripping was complete and clean). The tumor inhibition rate was calculated by formula b, the results were shown in Table 2 and FIG. 2; and by calculating a viscera-weight ratio of each organ, and it was analyzed whether the test compound had obvious physiological effects on the mouse organs.

Water solubility = type: physicochemical; settings: decides the injection route
[7] = Nanomorphology characterization and stability (TEM, SEM, hydration particle size, Zeta potential); type: physicochemical
Text: The nanomorphology of compounds ZD-B and ZD-E-1 were studied by TEM and SEM, and hydration particle size and Zeta potential of the two compounds in a solution were studied by a nanometer particle size analyzer. The results were shown in FIG. 1A-H. In FIG. 1A-H, FIG. 1A was a TEM image of the compound ZD-B; FIG. 1B was a TEM image of the compound ZD-E-1; FIG. 1C was a SEM image of the compound ZD-B; FIG. 1D was a SEM image of the compound ZD-E-1; FIG. 1E was a hydration particle size change curve of the compound ZD-B in solutions at different pH values within 72 h (0.5 h, 24 h, 48 h, and 72 h); FIG. 1F was a hydration particle size change curve of the compound ZD-E-1 in solutions at different pH solutions within 72 h; FIG. 1G was a Zeta potential change curve of the compound ZD-B in solutions at different pH values within 72 h; and FIG. 1H was a Zeta potential change curve of the compound ZD-E-1 in solutions at different pH values within 72 h.

[8] = Table 2, 10 μmol/kg, ip, 7 consecutive days
[9] = Table 2, 2 μmol/kg, ip, 7 consecutive days

What does the source list for `N=C(NCCC[C@H](Nc1ccc([N+](=O)[O-])c2nonc12)C(=O)OCc1ccccc1)N[N+](=O)[O-]` [ZD-A, NBD-Arg(NO2)-OBzl]?
IC50 ([1]; Mus musculus): > 100 µM; IC50 ([2]; Homo sapiens, A549, 48 h): > 100 µM; IC50 ([3]; Mus musculus, S-180, 48 h): > 100 µM; IC50 ([4]; Homo sapiens, U2OS): > 100 µM; IC50 ([5]; Homo sapiens, MCF7, 48 h): > 100 µM; IC50 ([6]; Homo sapiens, HCT-116, 48 h): > 100 µM; Average tumor weight compared with Vehicle group (one-way analysis of variance) (mouse S180 sarcoma model; 10 μmol/kg, ip): different from that of Vehicle group; Tumor Inhibition Rate (mouse S180 sarcoma model; [8]): 36.19%; Average tumor weight (mouse S180 sarcoma model; [8]): 1.140 ± 0.437 g; Tumor Inhibition Rate (mouse S180 sarcoma model; Table 3, 2 μmol/kg, ip): 23.36%; Average tumor weight (mouse S180 sarcoma model; Table 3, 2 μmol/kg, ip): 1.315 ± 0.338 g; Tumor Inhibition Rate (mouse S180 sarcoma model; Table 3, 5 μmol/kg, ip): 28.20%; Average tumor weight (mouse S180 sarcoma model; Table 3, 5 μmol/kg, ip): 1.232 ± 0.102 g; Tumor Inhibition Rate (mouse S180 sarcoma model; Table 3, 10 μmol/kg, ip): 29.78%; Average tumor weight (mouse S180 sarcoma model; Table 3, 10 μmol/kg, ip): 1.204 ± 0.438 g; Water solubility (Water solubility): poor water solubility

With `COc1cccc2c1C(=O)c1c(O)c3c(c(O)c1C2=O)C[C@@](O)(C(=O)CO)C[C@@H]3O[C@H]1C[C@H](N)[C@H](O)[C@H](C)O1` [DOX, doxorubicin, reference compound] as the molecule, how does the IC50 ([1]; Mus musculus, LLC, Mean ± SD) read?
The IC50 was 0.19 ± 0.095 µM.

What about the IC50 ([2]; Homo sapiens, A549, 48 h, Mean ± SD) of the same molecule?
The IC50 was 0.229 ± 0.052 µM.

And the IC50 ([3]; Mus musculus, S-180, S180, 48 h, Mean ± SD)?
The IC50 was 0.49 ± 0.092 µM.

And the IC50 ([4]; Homo sapiens, U2Os, Mean ± SD)?
The IC50 was 1.2 ± 0.034 µM.

And the IC50 ([5]; Homo sapiens, MCF7, MCF-7, 48 h, Mean ± SD)?
Its IC50 is 1.03 ± 0.188 µM.

And the IC50 ([6]; Homo sapiens, HCT-116, HCT116, 48 h, Mean ± SD)?
The IC50 was 0.375 ± 0.108 µM.

What about the Tumor Inhibition Rate (mouse S180 sarcoma model; [9]) of the same molecule?
The Tumor Inhibition Rate was 51.80%.

What about the Average tumor weight (mouse S180 sarcoma model; [9]) of the same molecule?
Its Average tumor weight is 0.861 ± 0.462 g.

For `CS(=O)(=O)NCCNc1ccc([N+](=O)[O-])c2nonc12` [ZD-C, NBD-N-(2-aminoethyl)methanesulfonamide], which IC50 ([1]; LLC, Mean ± SD) is on record?
Its IC50 is greater than 100 µM.

And the IC50 ([2]; A549, 48 h, Mean ± SD)?
Its IC50 is greater than 100 µM.

What about the IC50 ([3]; S180, 48 h, Mean ± SD) of the same molecule?
The IC50 was greater than 100 µM.

What about the IC50 ([4]; U2Os, Mean ± SD) of the same molecule?
Its IC50 is greater than 100 µM.

What about the IC50 ([5]; MCF-7, 48 h, Mean ± SD) of the same molecule?
The IC50 was greater than 100 µM.

And the IC50 ([6]; HCT116, 48 h, Mean ± SD)?
The IC50 was greater than 100 µM.

And the “Average tumor weight compared with Vehicle group (one-way analysis of variance)” value (mouse S180 sarcoma model; 10 μmol/kg, ip)?
Its value is “different from that of Vehicle group”.

What about the Tumor Inhibition Rate (mouse S180 sarcoma model; [8]) of the same molecule?
The Tumor Inhibition Rate was 29.46%.

What about the Average tumor weight (mouse S180 sarcoma model; [8]) of the same molecule?
The Average tumor weight was 1.260 ± 0.466 g.

What does the source list for `CN(C)c1ccc2cc(C(=O)NC(CCCNC(=N)CCl)C(=O)NCc3ccccc3)ccc2c1` (stereo not shown) [YW3-56, N-(1-(benzylamino)-5-(2-chlorooxalimide)-1-oxopentan-2-yl)-6-(dimethylamino)-2-naphthylamide, reference compound]?
Tumor Inhibition Rate (mouse S180 sarcoma model; [8]): 44.39%; Average tumor weight (mouse S180 sarcoma model; [8]): 0.994 ± 0.310 g; Tumor Inhibition Rate (mouse S180 sarcoma model; Table 3, 10 μmol/kg, iv): 44.38%; Average tumor weight (mouse S180 sarcoma model; Table 3, 10 μmol/kg, iv): 0.954 ± 0.298 g

For `CC(C)C[C@H](Nc1ccc([N+](=O)[O-])c2nonc12)C(=O)N[C@H](C(=O)OCc1ccccc1)C(C)C` [ZD-B, NBD-LV-OBzl], which IC50 ([1]; LLC, Mean ± SD) is on record?
Its IC50 is 96.5 ± 6.85 µM.

What about the “Nanomorphology (shape)” value ([7]; TEM and SEM) of the same molecule?
The value was “shape of a strip”.

What about the “Hydration particle size change” value ([7]; pH=2.0, measured continuously for 72 h) of the same molecule?
The value was “great change in particle size”.

What about the “Hydration particle size change” value ([7]; pH=5.5, measured continuously for 72 h) of the same molecule?
The value was “great change in particle size”.

What about the Hydration particle size ([7]; pH=7.0 versus other pH values, 72 h) of the same molecule?
The Hydration particle size was “smallest particle size at pH=7.0”.

What about the Zeta potential change ([7]; solutions at different pH values, measured continuously for 72 h) of the same molecule?
Its Zeta potential change is “neither ZD-B nor ZD-E-1 had an obvious change”.

What about the IC50 ([2]; A549, 48 h, Mean ± SD) of the same molecule?
The IC50 was greater than 100 µM.

And the IC50 ([3]; S180, 48 h, Mean ± SD)?
Its IC50 is 74.4 ± 10.1 µM.

What about the IC50 ([4]; U2Os, Mean ± SD) of the same molecule?
The IC50 was 86.4 ± 5.3 µM.

And the IC50 ([6]; HCT116, 48 h, Mean ± SD)?
Its IC50 is greater than 100 µM.

What about the “Anti-tumor growth activity (in words)” value (mouse S180 sarcoma model; 10 μmol/kg, ip) of the same molecule?
The value was “most prominent activities”.

And the “Average tumor weight compared with Vehicle group (one-way analysis of variance)” value (mouse S180 sarcoma model; 10 μmol/kg, ip)?
The value was “significantly different from that of Vehicle group”.

What about the Tumor Inhibition Rate (mouse S180 sarcoma model; [8]) of the same molecule?
The Tumor Inhibition Rate was 44.60%.

What about the Average tumor weight (mouse S180 sarcoma model; [8]) of the same molecule?
The Average tumor weight was 0.990 ± 0.180 g.

What about the “Tumor Inhibition Rate” value (mouse S180 sarcoma model; Table 3, 2 μmol/kg, ip) of the same molecule?
The value was 17.00%.

What about the Average tumor weight (mouse S180 sarcoma model; Table 3, 2 μmol/kg, ip) of the same molecule?
Its Average tumor weight is 1.424 ± 0.434 g.

What about the “Tumor Inhibition Rate” value (mouse S180 sarcoma model; Table 3, 5 μmol/kg, ip) of the same molecule?
The value was 35.64%.

What about the Average tumor weight (mouse S180 sarcoma model; Table 3, 5 μmol/kg, ip) of the same molecule?
Its Average tumor weight is 1.104 ± 0.218 g.

And the “Tumor Inhibition Rate” value (mouse S180 sarcoma model; Table 3, 10 μmol/kg, ip)?
Its value is 41.23%.

And the Average tumor weight (mouse S180 sarcoma model; Table 3, 10 μmol/kg, ip)?
The Average tumor weight was 1.008 ± 0.472 g.

What about the Water solubility (Water solubility) of the same molecule?
The Water solubility was “poor water solubility”.
